In article PMC8781192, “An In Silico and an In Vitro Inhibition Analysis of Glycogen Phosphorylase by Flavonoids, Styrylchromones, and Pyrazoles” (Nutrients, 2022):
Read-outs that look alike come from different tables or passages of the source.

Columns and labels:
rabbit mGPa [1] = molecular target: T1, rabbit mGPa (Oryctolagus cuniculus, UniProt P00489); set-up: method as in PMID 16317787; conditions: direction of glycogen breakdown; cited from earlier work
T1 construct: purchased Creative Enzymes
T1 sequence (P00489 2-843 limits assumed): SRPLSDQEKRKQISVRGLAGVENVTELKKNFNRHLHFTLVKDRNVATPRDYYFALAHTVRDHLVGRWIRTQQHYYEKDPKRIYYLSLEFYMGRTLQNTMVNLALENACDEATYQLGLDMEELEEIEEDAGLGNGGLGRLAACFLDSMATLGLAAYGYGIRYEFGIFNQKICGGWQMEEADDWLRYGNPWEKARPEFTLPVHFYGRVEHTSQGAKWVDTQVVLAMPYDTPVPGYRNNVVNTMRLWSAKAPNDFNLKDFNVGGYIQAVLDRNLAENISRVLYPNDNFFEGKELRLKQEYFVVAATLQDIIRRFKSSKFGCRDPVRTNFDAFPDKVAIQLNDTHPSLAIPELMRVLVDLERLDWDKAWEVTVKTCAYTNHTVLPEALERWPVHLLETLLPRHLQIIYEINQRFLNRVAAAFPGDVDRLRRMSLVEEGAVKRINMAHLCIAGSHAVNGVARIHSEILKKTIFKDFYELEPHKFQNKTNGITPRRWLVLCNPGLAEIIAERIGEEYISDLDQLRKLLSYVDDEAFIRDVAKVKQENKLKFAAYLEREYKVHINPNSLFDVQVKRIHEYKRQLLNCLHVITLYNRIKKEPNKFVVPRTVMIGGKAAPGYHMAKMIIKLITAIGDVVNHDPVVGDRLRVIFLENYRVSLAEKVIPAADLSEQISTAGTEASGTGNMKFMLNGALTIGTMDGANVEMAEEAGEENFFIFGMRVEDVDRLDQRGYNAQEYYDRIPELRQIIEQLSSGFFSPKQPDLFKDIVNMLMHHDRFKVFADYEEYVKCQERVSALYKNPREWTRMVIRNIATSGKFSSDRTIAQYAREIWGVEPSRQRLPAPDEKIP

rabbit mGPa [2] = molecular target: T1, rabbit mGPa; assay: In vitro effect of glucose on inhibitor potency (GPa inhibition with 0, 5, 10 mM glucose); assay type: biochemical; conditions: mean ± SEM, read-out: GPa IC50 value
Experimental: The method was performed as described in Section 2.2, with slight modifications. […] The enzymatic reaction was then started with the addition of a 50 mM HEPES buffer solution with a pH of 7.2 containing 100 mM KCl, 2.5 mM MgCl2, 0.25 mM glucose 1-phosphate, and 0.25 mg/mL glycogen. This buffer was used without glucose, or it was enriched with 5 and 10 mM of glucose and was incubated for 30 min at 37 °C in the reaction mixture. After this incubation time, BIOMOL® Green was added, and the reaction was monitored in a microplate reader (Synergy HT, BioTek Instruments, Winooski, VT, USA) at 620 nm.

rabbit mGPa [3] = molecular target: T1, rabbit mGPa; assay: In vitro glycogen phosphorylase inhibition assay (direction of glycogen synthesis, colorimetric phosphate); assay type: biochemical; conditions: no glucose; mean ± SEM; read-out: GPa IC50 value
Experimental: The GP activity was measured using a previously optimized and validated method. In each assay, GP activity was measured by the direction of glycogen synthesis, which involved monitoring the colorimetric determination of inorganic phosphate deriving from glucose 1-phosphate. […] The enzymatic reaction was then started with the addition of a 50 mM HEPES buffer solution, with a pH of 7.2, containing 100 mM KCl, 2.5 mM MgCl2, 0.25 mM glucose 1-phosphate, and 0.25 mg/mL glycogen incubated for 30 min at 37 °C. After this incubation time, the reagent for colorimetric phosphate quantitation, BIOMOL® Green, was added to the reaction mixture. The reaction was monitored in a microplate reader (Synergy HT, BioTek Instruments, Winooski, VT, USA) at 620 nm.

GPb = tested on: GPb; set-up: method as in PMID 16317787; conditions: direction of glycogen breakdown; cited from earlier work
[4] = tested on: rabbit mGPa and mGPb, together with human lGPa; set-up: method as in PMID 32771768; conditions: direction of glycogen synthesis; cited from earlier work
GP = tested on: GP; set-up: method as in PMID 18494482; conditions: cited from earlier work

In the case of O=c1cc(-c2ccccc2)oc2cc(O)cc(O)c12 [Compound 38, Chrysin], the IC50 (rabbit mGPa [1]) is listed as 27.5 µM, the IC50 (rabbit mGPa [2]; 0 mM of glucose) is listed as 19.3 ± 1.5 µM and the IC50 (rabbit mGPa [2]; 5 mM of glucose) is listed as 8.8 ± 0.8 µM. For the same compound, the IC50 (rabbit mGPa [2]; 10 mM of glucose) was 5.2 ± 0.3 µM, the IC50 (rabbit mGPa [3]) was 19.3 ± 1.5 µM and the IC50 (GPb) was 15.3 ± 1 µM. For the same compound, the “potency relative to flavonoid 45, quercetin” value [4] was roughly 10 fold and the IC50 (GP) was greater than 200 µM.
